Experimental data from US9856511B2, “Protease deubiquitinating inhibitor screening” (priority 2011, dated 2018).

Columns and labels:
chaperone genes = experiment: Microarray expression of chaperone genes after b-AP15 treatment; format: cell-based; settings: b-AP15 vs vehicle
Protocol: The microarray based gene expression analysis and the Connectivity Map (CMAP) analysis was performed as previously described (40). Briefly, MCF7 cells were exposed to b-AP15 (1 μM, 6 h) or vehicle (0.1% DMSO, 6 h). RNA was isolated (RNeasy miniprep kit, Qiagen) followed by quality control, labelling and hybridization to Genome U133 Plus 2.0 arrays (Affymetrix Inc). Raw data was normalized using Mas5 (Affymetrix Inc.) and rank ordered. For selection of the 30 most induced (up tags) and the 30 most suppressed (down tags) transcripts the following criteria were used: Up tags, present call and expression over 300 arbitrary in the b-AP15 experiment; Down tags, present call after both b-AP15 and vehicle treatment, and expression over 300 arbitrary units in the vehicle experiment. For CMAP compatibility only tags (i.e. probes) present on HG U133A were used. Raw and normalized expression data have been deposited at Gene Expression Omnibus (http://www.ncbi.nlm.nih.gov/geo/) with accession number GSE24150.
Expression of chaperone genes observed in bAP15-treated cells (Table 1) is indicative of induction of a proteotoxic response.

C1498 AML cells = experiment: C1498 AML model in C57BL/6J mice, histopathology of liver and ovary; format: in vivo; settings: 5 mg/kg i.p. for 7 days
Protocol: Animal experiments were conducted in full accordance with Swedish governmental statutory regulations on animal welfare under permission from local ethical committees. Animals were housed at a max of five per cage and provided with sterile water and food ad libitum. All mice were monitored and weighed daily. For the head and neck carcinoma model a 100-μl cell suspension containing 1×10^6 FaDu cells was injected subcutaneously into the right rear flank of the animals. After injection, tumor growth was measured daily with calipers and the tumor volume calculated by the formula […]. When tumors had grown to a size of approximately 200 mm^3 (Day 0) mice were randomized to receive either vehicle (n=10) or b-AP15 5 mg/kg^−1 by subcutaneous injection s.c. (n=15) daily. […] Nineteen days after malignant cell injection all of the mice were killed and histopathological manifestations of liver, ovary (target organs for this model of tumor) were evaluated and compared between groups. […]
SCID mice bearing FaDu human tumor xenografts were randomized at tumor take (200 mm^3) and treated by daily subcutaneous injection with either vehicle (n=10) or 5 mg kg^−1 b-AP15 (n=15) for 10 days. […] Mice were treated with vehicle (n=6) or 5 mg kg^−1 b-AP15 (n=6) 4-5 times weekly for 3 weeks and monitored for tumor onset (log-rank, P=0.0136, hazard ratio=7.9). […]

C=CC(=O)N1C/C(=C\c2ccc([N+](=O)[O-])cc2)C(=O)/C(=C/c2ccc([N+](=O)[O-])cc2)C1 [b-AP15]
Fold change HSPA6 (chaperone genes; probe set 117_at): 725 | Fold change DNAJB1 (chaperone genes; probe set 200666_s_at): 6 | Fold change HSPA1A (chaperone genes; probe set 200800_s_at): 4 | Fold change DNAJA1 (chaperone genes; probe set 200880_at): 4 | Fold change HSPA1B (chaperone genes; probe set 202581_at): 5 | Fold change DNAJB9 (chaperone genes; probe set 202843_at): 4 | Fold change DNAJB4 (chaperone genes; probe set 203810_at): 16 | Fold change DNAJB4 (chaperone genes; probe set 203811_s_at): 5 | Fold change HSPA4L (chaperone genes; probe set 205543_at): 13 | Fold change HSPH1 (chaperone genes; probe set 206976_s_at): 5 | Fold change HSPA4 (chaperone genes; probe set 211016_x_at): 4 | Fold change DNAJA4 (chaperone genes; probe set 225061_at): 30 | Fold change HSPD1 (chaperone genes; probe set 241716_at): 6 | AML infiltration in liver and ovary (C1498 AML cells): few infiltrated blasts and normal morphology
